Data taken from patent US20090270450A1, “CHEMICAL COMPOUNDS” (ASTRAZENECA AB, priority 2006, published 2009).
Where a name gives a salt, the structure may show the parent alone.

The molecules below were run against T1, His-tagged kinase domain of CSF-1R (amino acids 568-912) (Homo sapiens, UniProt P07333) (assay: Assay 1: CSF-1R in vitro AlphaScreen assay). Conditions: phosphorylation of biotinylated pEY substrate; 0.57 nM CSF-1R, 90 μM ATP.
T1 construct: The His-tagged kinase domain of CSF-1R (i.e., amino acids 568-912, GeneBank ID NM_005211); His; made in house; host or cells: baculovirus infected SF+Express insect cells
T1 sequence (P07333 568-912): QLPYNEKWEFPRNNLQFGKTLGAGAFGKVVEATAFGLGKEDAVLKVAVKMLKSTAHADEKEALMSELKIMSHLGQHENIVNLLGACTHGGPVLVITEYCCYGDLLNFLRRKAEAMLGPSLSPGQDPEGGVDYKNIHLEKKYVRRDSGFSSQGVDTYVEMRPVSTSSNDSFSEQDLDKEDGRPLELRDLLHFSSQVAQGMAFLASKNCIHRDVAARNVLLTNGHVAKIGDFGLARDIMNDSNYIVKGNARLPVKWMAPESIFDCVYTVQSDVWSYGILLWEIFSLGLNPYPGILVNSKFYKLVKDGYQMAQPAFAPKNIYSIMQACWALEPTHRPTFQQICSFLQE
Type: biochemical
Description: Assay 1: CSF-1R in Vitro AlphaScreen Assay
Activity of purified CSF-1R was determined in vitro using an Amplified Luminescent Proximity Homogeneous Assay (ALPHA)(Perkin Elmer), which measures phosphorylation of the CSF-1R substrate, biotinylated poly-glutamine-tyrosine peptide (PEY-HTRF CisBio 61GT0BLD), as described below. The His-tagged kinase domain of CSF-1R (i.e., amino acids 568-912, GeneBank ID NM_005211; (see page 25 lines 13-19 of WO 2006/067445 for the sequence listing)) was purified from baculovirus infected SF+Express insect cells (1.4×10^6 cells/ml), French pressed and chromatographed through subsequent Qiagen Ni-NTA, Superflow Mono Q HR 10/10, and Superdex 200 SEC columns. Typical yield was 245 μg/l of cell pellet at >95% purity.
The phosphorylation of the CSF-1R substrate in the presence and absence of the compound of interest was determined. Briefly, 0.57 nM of purified CSF-1R, 5 nM pEY substrate, and compound were preincubated in 1× buffer for 30 minutes at 25° C. Reactions were initiated with addition of 90 μM adenosine triphosphate (ATP) in 1× buffer and incubated at 25° C. for 60 minutes and reactions stopped by addition of 5 μl of detection mix consisting of 136 mM NaCl, 102 mM ethylenediamine tetraacetic acid, 1.65 mg/ml BSA, 40 ug/ml Streptavidin donor beads (Perkin Elmer 6760002), 40 ug/ml pTyr100 acceptor beads (Perkin Elmer 6760620). Plates were incubated at 25° C. for 18 hours in the dark. Phosphorylated substrate was detected by an EnVision plate reader (Perkin Elmer) 680 nm excitation, 520-620 nm emission. Data was graphed and IC50s calculated using Excel Fit (Microsoft).

Row | IC50 [nM] | Structure (SMILES)
1 | < 3 | CCOc1cc2ncc(C(N)=O)c(Nc3ccc(F)cc3F)c2cc1C1=CCNCC1 [Example 39, 4-[(2,4-Difluorophenyl)amino]-7-ethoxy-6-(1,2,3,6-tetrahydropyridin-4-yl)quinoline-3-carboxamide]
2 | 7 | CCOc1cc2ncc(C(N)=O)c(Nc3ccc(F)cc3F)c2cc1C1CCNCC1 [Example 40, 4-[(2,4-Difluorophenyl)amino]-7-ethoxy-6-piperidin-4-ylquinoline-3-carboxamide]
3 | 14 | CCOc1cc2ncc(C(N)=O)c(Nc3ccc(F)cc3F)c2cc1C1=CCN(C(C)=O)CC1 [Example 41, 6-(1-Acetyl-1,2,3,6-tetrahydropyridin-4-yl)-4-[(2,4-difluorophenyl)amino]-7-ethoxyquinoline-3-carboxamide]
4 | 5 | CCOc1cc2ncc(C(N)=O)c(Nc3ccc(C)cc3F)c2cc1C1CCN(C)CC1 [Example 42, 7-Ethoxy-4-[(2-fluoro-4-methylphenyl)amino]-6-(1-methylpiperidin-4-yl)quinoline-3-carboxamide]
5 | < 3.9 | CCOc1cc2ncc(C(N)=O)c(Nc3ccc(F)cc3F)c2cc1C1CCN(C)CC1 [Example 43, 4-[(2,4-Difluorophenyl)amino]-7-ethoxy-6-(1-methylpiperidin-4-yl)quinoline-3-carboxamide]
6 | < 3 | CCOc1cc2ncc(C(N)=O)c(Nc3cccc(Cl)c3F)c2cc1C1CCN(C)CC1 [Example 44, 4-[(3-Chloro-2-fluorophenyl)amino]-7-ethoxy-6-(1-methylpiperidin-4-yl)quinoline-3-carboxamide]
7 | < 3 | CCOc1cc2ncc(C(N)=O)c(Nc3cccc(Cl)c3Cl)c2cc1C1CCN(C)CC1 [Example 45, 4-[(2,3-Dichlorophenyl)amino]-7-ethoxy-6-(1-methylpiperidin-4-yl)quinoline-3-carboxamide]
8 | 18 | CCOc1cc2ncc(C(N)=O)c(Nc3ccc(F)cc3F)c2cc1C1CCN(C(C)C)CC1 [Example 46, 4-[(2,4-Difluorophenyl)amino]-7-ethoxy-6-(1-isopropylpiperidin-4-yl)quinoline-3-carboxamide]
9 | 4 | CCOc1cc2ncc(C(N)=O)c(Nc3ccc(C)cc3F)c2cc1C1CCN(C(C)C)CC1 [Example 47, 7-Ethoxy-4-[(2-fluoro-4-methylphenyl)amino]-6-(1-isopropylpiperidin-4-yl)quinoline-3-carboxamide]
10 | 3 | CCOc1cc2ncc(C(N)=O)c(Nc3cc(C)ccc3F)c2cc1C1CCN(C(C)C)CC1 [Example 48, 7-Ethoxy-4-[(2-fluoro-5-methylphenyl)amino]-6-(1-isopropylpiperidin-4-yl)quinoline-3-carboxamide]
11 | 7 | COc1cc2ncc(C(N)=O)c(Nc3ccc(C)cc3F)c2cc1C1CCN(C)CC1 [Example 49, 4-[(2-Fluoro-4-methylphenyl)amino]-7-methoxy-6-(1-methylpiperidin-4-yl)quinoline-3-carboxamide]
12 | 6 | COc1cc2ncc(C(N)=O)c(Nc3cccc(Cl)c3F)c2cc1C1CCN(C)CC1 [Example 50, 4-[(3-Chloro-2-fluorophenyl)amino]-7-methoxy-6-(1-methylpiperidin-4-yl)quinoline-3-carboxamide]
13 | 10 | COc1cc2ncc(C(N)=O)c(Nc3ccc(F)cc3F)c2cc1C1CCN(C)CC1 [Example 51, 4-[(2,4-Difluorophenyl)amino]-7-methoxy-6-(1-methylpiperidin-4-yl)quinoline-3-carboxamide]
14 | 15 | COc1cc2ncc(C(N)=O)c(Nc3ccc(F)cc3F)c2cc1C1CCN(C(C)=O)CC1 [Example 55, 6-(1-Acetylpiperidin-4-yl)-4-[(2,4-difluorophenyl)amino]-7-methoxyquinoline-3-carboxamide]
15 | 7 | CCOc1cc2ncc(C(N)=O)c(Nc3ccc(F)cc3F)c2cc1-c1ccc(=O)[nH]c1 [Example 59, 4-[(2,4-Difluorophenyl)amino]-7-ethoxy-6-(6-oxo-1,6-dihydropyridin-3-yl)quinoline-3-carboxamide]

What follows are molecules tested against T1, His-tagged kinase domain of CSF-1R (amino acids 568-912) (assay: Assay 2: CSF1R in-vitro AlphaScreen assay). Conditions: phosphorylation of biotinylated pEY substrate; 0.46 nM CSF-1R, 12 mM ATP mix.
Type: biochemical
Description: Assay 2: CSF1R in-Vitro AlphaScreen Assay
Activity of purified CSF-1R was determined in-vitro using an Amplified Luminescent Proximity Homogeneous Assay (ALPHA) (Perkin Elmer, Mass.), which measures phosphorylation of CSF-1R substrate, biotinylated poly-glutamine-tyrosine peptide (pEY-HTRF CisBio 61GT0BLD), as described below. The His-tagged kinase domain of CSF-1R (i.e., amino acids 568-912, GeneBank ID NM_005211) was purified from baculovirus infected SF+Express insect cells (1.4×10^6 cells/ml), French pressed and chromatographed through subsequent QIAgen Ni-NTA, Superflow Mono Q HR 10/10, and Superdex 200 SEC columns. Typical yield was 322 ug/l of cell pellet at >95% purity. The phosphorylation of the CSF-1R substrate in the presence and absence of the compound of interest was determined. Briefly, 5 ul of Enzyme/Substrate/adenosine triphosphate (ATP) mix consisting of 0.46 nM of purified CSF-1R, 12 nM pEY substrate, and 12 mM ATP in 1.2× buffer was preincubated with 2 ul of compound for 20 minutes at 25° C. Reactions were initiated with 5 ul of Metal mix consisting of 24 mM MgCl2 in 1.2× buffer and incubated at 25° C. for 90 minutes and reactions were stopped by addition of 5 ul of Detection mix consisting of 20 mM HEPES, 102 mM ethylenediamine tetraacetic acid, 1.65 mg/ml BSA, 136 mM NaCl, 40 ug/ml Streptavidin donor beads (Perkin Elmer, Mass., Catalog #6760002), and 40 ug/ml phosphotyrosine-specific antibody coated acceptor beads (Perkin Elmer, Mass., Catalog #6760620). Plates were incubated at 25° C. for 18 hours in the dark. Phosphorylated substrate was detected by an EnVision plate reader (Perkin Elmer) 680 nm excitation, 520-620 nm emission. Data was graphed and IC50s calculated using Excel Fit (Microsoft). […] For example the following results were obtained in an assay substantially similar to one or other of the assays described hereinabove: […]

Row | IC50 [nM] | Structure (SMILES)
16 | 22 | CCOc1cc2ncc(C(N)=O)c(Nc3ccc(F)cc3F)c2cc1C1CCN(C(C)C)CC1 [Example 46, 4-[(2,4-Difluorophenyl)amino]-7-ethoxy-6-(1-isopropylpiperidin-4-yl)quinoline-3-carboxamide]
17 | 14 | COc1cc2ncc(C(N)=O)c(Nc3ccc(C)cc3F)c2cc1C1CCN(C(C)C)CC1 [Example 52, 4-[(2-Fluoro-4-methylphenyl)amino]-6-(1-isopropylpiperidin-4-yl)-7-methoxyquinoline-3-carboxamide]
18 | 32 | COc1cc2ncc(C(N)=O)c(Nc3ccc(F)cc3F)c2cc1C1CCN(C(C)C)CC1 [Example 53, 4-[(2,4-Difluorophenyl)amino]-6-(1-isopropylpiperidin-4-yl)-7-methoxyquinoline-3-carboxamide]
19 | 8 | COc1cc2ncc(C(N)=O)c(Nc3cccc(Cl)c3F)c2cc1C1CCN(C(C)C)CC1 [Example 54, 4-[(3-Chloro-2-fluorophenyl)amino]-6-(1-isopropylpiperidin-4-yl)-7-methoxyquinoline-3-carboxamide]
20 | 30 | CCOc1cc2ncc(C(N)=O)c(Nc3ccc(C)cc3F)c2cc1C1CCN(C(C)=O)CC1 [Example 56, 6-(1-Acetylpiperidin-4-yl)-7-ethoxy-4-[(2-fluoro-4-methylphenyl)amino]quinoline-3-carboxamide]
21 | 71 | CCOc1cc2ncc(C(N)=O)c(Nc3ccc(C)cc3F)c2cc1C1CCN(C(=O)CCOC)CC1 [Example 57, 7-Ethoxy-4-[(2-fluoro-4-methylphenyl)amino]-6-[1-(3-methoxypropanoyl)piperidin-4-yl]quinoline-3-carboxamide]
22 | 52 | CCOc1cc2ncc(C(N)=O)c(Nc3ccc(C)cc3F)c2cc1C1CCN(C(=O)[C@@H](C)O)CC1 [Example 58, 7-Ethoxy-4-[(2-fluoro-4-methylphenyl)amino]-6-{1-[(2R)-2-hydroxypropanoyl]piperidin-4-yl}quinoline-3-carboxamide]
23 | 4 | COc1cc2ncc(C(N)=O)c(Nc3ccc(C)cc3F)c2cc1C1CCN(CCO)CC1 [Example 60, 4-[(2-Fluoro-4-methylphenyl)amino]-6-[1-(2-hydroxyethyl)piperidin-4-yl]-7-methoxyquinoline-3-carboxamide hydrochloride]
